According to ChEMBL document CHEMBL1921721, “Benzenepolycarboxylic acids with potential anti-hemorrhagic properties and structure-activity relationships” (Bioorg Med Chem, 2011):

Key:
[1] = test system: Mus musculus; experiment: Antihemorrhagic activity in ddY mouse assessed as inhibition of Protobothrops flavoviridis venom-induced hemorrhagic lesion formation compound incubated with venom for 10 mins and administered subcutaneously measured after 24 hrs; assay type: functional, organism-based
[2] = Dissociation constant, pKa of the compound; assay type: physicochemical
[3] = test system: Mus musculus; experiment: Ratio of benzoic acid IC50 to compound IC50 for antihemorrhagic activity in ddY mouse assessed as inhibition of Protobothrops flavoviridis venom-induced hemorrhagic lesion formation compound incubated with venom for 10 mins and administered subcutaneously measured after 24 hrs; assay type: functional
[4] = test system: Mus musculus; experiment: Ratio of caffeic acid IC50 to compound IC50 for antihemorrhagic activity in ddY mouse assessed as inhibition of Protobothrops flavoviridis venom-induced hemorrhagic lesion formation compound incubated with venom for 10 mins and administered subcutaneously measured after 24 hrs; assay type: functional

SMILES: O=C(O)c1ccccc1[N+](=O)[O-]
- IC50 [1]: 260 nM

SMILES: O=C(O)c1ccccc1Cl
- pKa [2]: 2.97
- IC50 [1]: 250 nM

SMILES: O=C(O)/C=C/C=C/C(=O)O
- IC50 [1]: 110 nM

SMILES: O=C(O)c1ccc(C(=O)O)c(C(=O)O)c1
- pKa [2]: 2.84
- IC50 [1]: 62 nM

SMILES: O=C(O)c1cc(C(=O)O)cc(C(=O)O)c1
- pKa [2]: 2.98
- IC50 [1]: 67 nM

SMILES: O=C(O)c1cccc(O)c1 [3-HYDROXYBENZOIC ACID]
- pKa [2]: 4.08
- IC50 [1]: 200 nM

SMILES: Cc1ccc(C(=O)O)cc1 [4-METHYLBENZOIC ACID]
- pKa [2]: 4.37
- IC50 [1]: 220 nM

SMILES: O=C(O)c1ccc([N+](=O)[O-])cc1 [4-NITROBENZOIC ACID]
- pKa [2]: 3.42
- IC50 [1]: 240 nM

SMILES: O=C(O)c1cc(C(=O)O)c(C(=O)O)c(C(=O)O)c1C(=O)O [BENZENEPENTACARBOXYLIC ACID]
- pKa [2]: 1.93
- IC50 [1]: 43 nM

SMILES: O=C(O)c1ccccc1 [BENZOIC ACID]
- IC50 [1]: 200 nM

SMILES: O=C(O)/C=C/c1ccc(O)c(O)c1 [CAFFEIC ACID]
- pKa [2]: 4.58

SMILES: O=C(O)c1cccc(C(=O)O)c1 [ISOPHTHALIC ACID]
- IC50 [1]: 100 nM
- Ratio IC50 [3]: 2
- Ratio IC50 [4]: 2

SMILES: O=C(O)c1c(C(=O)O)c(C(=O)O)c(C(=O)O)c(C(=O)O)c1C(=O)O [MELLITIC ACID]
- pKa [2]: 1.15
- IC50 [1]: 43 nM

SMILES: O=C(O)c1ccc(O)cc1 [PARABEN]
- pKa [2]: 4.57
- IC50 [1]: 200 nM

SMILES: O=C(O)c1ccccc1C(=O)O [PHTHALIC ACID]
- IC50 [1]: 100 nM
- Ratio IC50 [3]: 2
- Ratio IC50 [4]: 2

SMILES: O=C(O)c1cc(C(=O)O)c(C(=O)O)cc1C(=O)O [PYROMELLITIC ACID]
- pKa [2]: 1.87
- IC50 [1]: 35 nM

SMILES: O=C(O)c1ccccc1O [SALICYLIC ACID]
- IC50 [1]: 200 nM

SMILES: O=C(O)c1ccc(C(=O)O)cc1 [TEREPHTHALIC ACID]
- IC50 [1]: 90 nM
- Ratio IC50 [3]: 2
- Ratio IC50 [4]: 2
